Measured values as given in PMC8372460 (European Journal of Medicinal Chemistry, 2021).
Where two headings read alike, the source gives them in different places.

Assays:
Vero E6 cells = conditions: under tested concentrations
[1] = Balb/C mice, 100 mg/kg, p.o., 10 times in 20 days
SARS-CoV-2 M^pro = SARS-CoV-2 M^pro (Severe acute respiratory syndrome coronavirus 2, UniProt P0DTD1); assay type: biochemical
[2] = patients with hypoprothrombinemia, doses from 1 to 200 mg; cited from earlier work
[3] = system: human normal fibroblast HFF-1 cells; test: In vitro cytotoxicity evaluation, MTT assay; assay type: cell-based; conditions: read-out: IC50 values towards HFF-1 cells, 48 h
[4] = system: normal peripheral blood mononuclear cells; conditions: cited from earlier work
[5] = system: Vesicular Stomatitis Virus; conditions: cited from earlier work
latent HIV-1 = conditions: bcl-2-transduced primary CD4+ T cell model; cited from earlier work
[6] = concentrations ranging from 100 μg/mL to 10 ng/mL; cited from earlier work

COc1cccc2c1C(=O)C(C(C)=O)=CC2=O [Compound 15, 2-acetyl-8-methoxy-1,4-naphthoquinone]
toxicity towards host Vero E6 cells (in words) (Vero E6 cells): non-toxic
animal deaths [1]: no animal deaths
body weight change compared with control animals [1]: minor body weight loss
toxicity symptoms (reduced activity, hypothermia, body shivering) ([1]; every other day): did not show any obvious toxicity symptoms

COc1cc(C)cc2c1C(=O)C=CC2=O [Compound 22, 7-methyl juglone methyl ether]
inhibitory effect towards M^pro (in words) (SARS-CoV-2 M^pro): did not show any inhibitory effects

CC1=CC(=O)c2ccccc2C1=O [Compound 3, 2-Methyl-1,4-naphthoquinone, reference compound]
inhibitory effect towards M^pro (in words) (SARS-CoV-2 M^pro; 10 μM): inactive
toxic effects in patients [2]: no toxic effects were observed

O=C1C=CC(=O)c2c(O)cccc21 [Compound 2, juglone]
inhibitory effect towards M^pro (in words) (SARS-CoV-2 M^pro; 1 μM): completely inactivated the main protease
inhibitory effect towards M^pro (in words) (SARS-CoV-2 M^pro; 10 μM): completely loss of the hydrolytic efficacy
IC50 [3]: < 5 µM
IC50, cytotoxicity against normal peripheral blood mononuclear cells [4]: more than 5 μg/mL
activity against Vesicular Stomatitis Virus [5]: active
reactivation of latent HIV-1 (latent HIV-1): potently reactivate latent HIV-1

O=C1C=C(O)C(=O)c2ccccc21 [Compound 7, 2-hydroxy-1,4-naphthoquione]
inhibitory effect towards M^pro (in words) (SARS-CoV-2 M^pro; 10 μM): did not exhibit any detectable inhibition

CC(C)=CC[C@@H](O)C1=CC(=O)c2c(O)ccc(O)c2C1=O [Compound 1, shikonin, reference compound]
inhibitory effect towards M^pro (in words) (SARS-CoV-2 M^pro; 10 μM): moderate inhibitory effects
cytotoxic effects in vitro [6]: significant cytotoxic effects

CC1=CC(=O)c2c(O)cccc2C1=O [Compound 17, Plumbagin]
inhibitory effect towards M^pro (in words) (SARS-CoV-2 M^pro; 10 μM): inactive

Cc1cc(O)c2c(c1)C(=O)C=CC2=O [Compound 16, 7-Methyl juglone]
Mpro inhibition rate at different conc. (%) 0.1 μM (SARS-CoV-2 M^pro): 21.7%
Mpro inhibition rate at different conc. (%) 1 μM (SARS-CoV-2 M^pro): 99.6%
inhibitory effect towards M^pro (in words) (SARS-CoV-2 M^pro): completely loss of the hydrolytic efficacy
IC50 [3]: < 5 µM
